This is an account of results in ChEMBL document CHEMBL5303573, “Mapping human microbiome drug metabolism by gut bacteria and their genes” (Nature, 2019).

The nature of one data set: The drug is tested on Bifidobacterium longum subsp. Infantis strain: CCUG52486 for biotransformation. The drug concentrations were measured before and after a 12-h incubation by liquid-chromatography-coupled mass spectrometry (LC–MS). Conditions: 2 µM.
On to `CN(C)CCC=C1c2ccccc2COc2ccccc21` [DOXEPIN], for which the “Bacterial Biotransformation” value is on record as “Compound NOT metabolized”.

As to `CC(=O)OCC(=O)[C@@]1(OC(C)=O)[C@@H](C)C[C@H]2[C@@H]3C[C@H](F)C4=CC(=O)C=C[C@]4(C)[C@@]3(F)[C@@H](O)C[C@@]21C` [DIFLORASONE DIACETATE], the “Bacterial Biotransformation” value was “Compound metabolized”.

A short description of the next data set: The drug is tested on Bifidobacterium ruminantium strain: fecal isolate for biotransformation. The drug concentrations were measured before and after a 12-h incubation by liquid-chromatography-coupled mass spectrometry (LC–MS). Conditions: 2 µM.
As to `CN(C)CCC=C1c2ccccc2COc2ccccc21` [DOXEPIN], the “Bacterial Biotransformation” value was “Compound NOT metabolized”.

For `CC(=O)OCC(=O)[C@@]1(OC(C)=O)[C@@H](C)C[C@H]2[C@@H]3C[C@H](F)C4=CC(=O)C=C[C@]4(C)[C@@]3(F)[C@@H](O)C[C@@]21C` [DIFLORASONE DIACETATE], the “Bacterial Biotransformation” value is “Compound metabolized”.

The next data set is described as follows: The drug is tested on Collinsella aerofaciens strain: ATCC25986 for biotransformation. The drug concentrations were measured before and after a 12-h incubation by liquid-chromatography-coupled mass spectrometry (LC–MS). To be noted: 2 µM.
Take `CN(C)CCC=C1c2ccccc2COc2ccccc21` [DOXEPIN]: the “Bacterial Biotransformation” value is reported as “Compound NOT metabolized”.

Take `CC(=O)OCC(=O)[C@@]1(OC(C)=O)[C@@H](C)C[C@H]2[C@@H]3C[C@H](F)C4=CC(=O)C=C[C@]4(C)[C@@]3(F)[C@@H](O)C[C@@]21C` [DIFLORASONE DIACETATE]: the “Bacterial Biotransformation” value is listed as “Compound metabolized”.

The next data set is described as follows: The drug is tested on Bacteroides dorei strain: DSM17855 for biotransformation. The drug concentrations were measured before and after a 12-h incubation by liquid-chromatography-coupled mass spectrometry (LC–MS). To be noted: phocaeicola dorei, 2 µM.
Turning to `CN(C)CCC=C1c2ccccc2COc2ccccc21` [DOXEPIN], the “Bacterial Biotransformation” value was “Compound NOT metabolized”.

With `CC(=O)OCC(=O)[C@@]1(OC(C)=O)[C@@H](C)C[C@H]2[C@@H]3C[C@H](F)C4=CC(=O)C=C[C@]4(C)[C@@]3(F)[C@@H](O)C[C@@]21C` [DIFLORASONE DIACETATE], the “Bacterial Biotransformation” value is “Compound metabolized”.

The next data set is described as follows: The drug is tested on Bacteroides finegoldii strain: DSM17565 for biotransformation. The drug concentrations were measured before and after a 12-h incubation by liquid-chromatography-coupled mass spectrometry (LC–MS). To be noted: 2 µM.
Take `CN(C)CCC=C1c2ccccc2COc2ccccc21` [DOXEPIN]: the “Bacterial Biotransformation” value is “Compound NOT metabolized”.

As to `CC(=O)OCC(=O)[C@@]1(OC(C)=O)[C@@H](C)C[C@H]2[C@@H]3C[C@H](F)C4=CC(=O)C=C[C@]4(C)[C@@]3(F)[C@@H](O)C[C@@]21C` [DIFLORASONE DIACETATE], the “Bacterial Biotransformation” value was “Compound metabolized”.

A short description of another data set: The drug is tested on Bacteroides fragilis strain: HMW615 for biotransformation. The drug concentrations were measured before and after a 12-h incubation by liquid-chromatography-coupled mass spectrometry (LC–MS). To be noted: 2 µM.
Consider `CN(C)CCC=C1c2ccccc2COc2ccccc21` [DOXEPIN], for which the “Bacterial Biotransformation” value is recorded as “Compound NOT metabolized”.

Regarding `CC(=O)OCC(=O)[C@@]1(OC(C)=O)[C@@H](C)C[C@H]2[C@@H]3C[C@H](F)C4=CC(=O)C=C[C@]4(C)[C@@]3(F)[C@@H](O)C[C@@]21C` [DIFLORASONE DIACETATE], the “Bacterial Biotransformation” value is “Compound metabolized”.

The next data set is described as follows: The drug is tested on Bacteroides sp. WH2 strain: WH2 for biotransformation. The drug concentrations were measured before and after a 12-h incubation by liquid-chromatography-coupled mass spectrometry (LC–MS). To be noted: bacteroides sp. wh2, 12 h, 2 µM.
Turning to `CN(C)CCC=C1c2ccccc2COc2ccccc21` [DOXEPIN], the “Bacterial Biotransformation” value was “Compound NOT metabolized”.

Regarding `CC(=O)OCC(=O)[C@@]1(OC(C)=O)[C@@H](C)C[C@H]2[C@@H]3C[C@H](F)C4=CC(=O)C=C[C@]4(C)[C@@]3(F)[C@@H](O)C[C@@]21C` [DIFLORASONE DIACETATE], the “Bacterial Biotransformation” value is on record as “Compound metabolized”.

A further data set is described as follows: The drug is tested on Bacteroides xylanisolvens strain: DSM18836 for biotransformation. The drug concentrations were measured before and after a 12-h incubation by liquid-chromatography-coupled mass spectrometry (LC–MS). Conditions: 2 µM.
Take `CC(=O)OCC(=O)[C@@]1(OC(C)=O)[C@@H](C)C[C@H]2[C@@H]3C[C@H](F)C4=CC(=O)C=C[C@]4(C)[C@@]3(F)[C@@H](O)C[C@@]21C` [DIFLORASONE DIACETATE]: the “Bacterial Biotransformation” value is “Compound metabolized”.

A further data set in a line: The drug is tested on Anaerotruncus colihominis strain: DSM17241 for biotransformation. The drug concentrations were measured before and after a 12-h incubation by liquid-chromatography-coupled mass spectrometry (LC–MS). To be noted: 2 µM.
For the compound `CN(C)CCC=C1c2ccccc2COc2ccccc21` [DOXEPIN], the “Bacterial Biotransformation” value is “Compound NOT metabolized”.

Regarding `CC(=O)OCC(=O)[C@@]1(OC(C)=O)[C@@H](C)C[C@H]2[C@@H]3C[C@H](F)C4=CC(=O)C=C[C@]4(C)[C@@]3(F)[C@@H](O)C[C@@]21C` [DIFLORASONE DIACETATE], the “Bacterial Biotransformation” value is recorded as “Compound metabolized”.

The nature of another data set: The drug is tested on Eubacterium hallii strain: DSM3353 for biotransformation. The drug concentrations were measured before and after a 12-h incubation by liquid-chromatography-coupled mass spectrometry (LC–MS). To be noted: anaerobutyricum hallii, 2 µM.
As to `CN(C)CCC=C1c2ccccc2COc2ccccc21` [DOXEPIN], the “Bacterial Biotransformation” value was “Compound NOT metabolized”.

For `CC(=O)OCC(=O)[C@@]1(OC(C)=O)[C@@H](C)C[C@H]2[C@@H]3C[C@H](F)C4=CC(=O)C=C[C@]4(C)[C@@]3(F)[C@@H](O)C[C@@]21C` [DIFLORASONE DIACETATE], the “Bacterial Biotransformation” value is reported as “Compound NOT metabolized”.

A further data set is described as follows: The drug is tested on Eubacterium ventriosum strain: ATCC27560 for biotransformation. The drug concentrations were measured before and after a 12-h incubation by liquid-chromatography-coupled mass spectrometry (LC–MS). Further details: dose 2 uM, timepoint 0 vs 12 hours. To be noted: 2 µM. It is filed as ADME.
In the case of `CN(C)CCC=C1c2ccccc2COc2ccccc21` [DOXEPIN], the “Bacterial Biotransformation” value is “Compound NOT metabolized”.

As for `CC(=O)OCC(=O)[C@@]1(OC(C)=O)[C@@H](C)C[C@H]2[C@@H]3C[C@H](F)C4=CC(=O)C=C[C@]4(C)[C@@]3(F)[C@@H](O)C[C@@]21C` [DIFLORASONE DIACETATE], the “Bacterial Biotransformation” value is listed as “Compound NOT metabolized”.

The next data set can be described thus: The drug is tested on Ruminococcus gnavus strain: ATCC29149 for biotransformation. The drug concentrations were measured before and after a 12-h incubation by liquid-chromatography-coupled mass spectrometry (LC–MS). To be noted: mediterraneibacter gnavus, 2 µM.
Turning to `CN(C)CCC=C1c2ccccc2COc2ccccc21` [DOXEPIN], the “Bacterial Biotransformation” value is given as “Compound NOT metabolized”.

`CC(=O)OCC(=O)[C@@]1(OC(C)=O)[C@@H](C)C[C@H]2[C@@H]3C[C@H](F)C4=CC(=O)C=C[C@]4(C)[C@@]3(F)[C@@H](O)C[C@@]21C` [DIFLORASONE DIACETATE]: the “Bacterial Biotransformation” value is recorded as “Compound NOT metabolized”.

A further data set is described as follows: The drug is tested on Providencia stuartii strain: ATCC25827 for biotransformation. The drug concentrations were measured before and after a 12-h incubation by liquid-chromatography-coupled mass spectrometry (LC–MS). To be noted: 2 µM.
`CN(C)CCC=C1c2ccccc2COc2ccccc21` [DOXEPIN]: the “Bacterial Biotransformation” value was “Compound NOT metabolized”.

The conditions of a further data set: bacteroides fragilis, 12 h, 2 µM.
Description: The drug is tested on Bacteroides fragilis strain: NCTC 9343 for biotransformation. The drug concentrations were measured before and after a 12-h incubation by liquid-chromatography-coupled mass spectrometry (LC–MS)
With `CC(=O)OCC(=O)[C@@]1(OC(C)=O)[C@@H](C)C[C@H]2[C@@H]3C[C@H](F)C4=CC(=O)C=C[C@]4(C)[C@@]3(F)[C@@H](O)C[C@@]21C` [DIFLORASONE DIACETATE], the “Bacterial Biotransformation” value was “Compound metabolized”.

The conditions of a further data set: bacteroides intestinalis, 12 h, 2 µM.
Description: The drug is tested on Bacteroides intestinalis strain: DSM17393 for biotransformation. The drug concentrations were measured before and after a 12-h incubation by liquid-chromatography-coupled mass spectrometry (LC–MS)
`CN(C)CCC=C1c2ccccc2COc2ccccc21` [DOXEPIN]: the “Bacterial Biotransformation” value is “Compound NOT metabolized”.

Turning to `CC(=O)OCC(=O)[C@@]1(OC(C)=O)[C@@H](C)C[C@H]2[C@@H]3C[C@H](F)C4=CC(=O)C=C[C@]4(C)[C@@]3(F)[C@@H](O)C[C@@]21C` [DIFLORASONE DIACETATE], the “Bacterial Biotransformation” value is “Compound metabolized”.

For another data set the following is noted: bacteroides thetaiotaomicron, 12 h, 2 µM.
Description: The drug is tested on Bacteroides thetaiotaomicron strain: 3731 for biotransformation. The drug concentrations were measured before and after a 12-h incubation by liquid-chromatography-coupled mass spectrometry (LC–MS)
In the case of `CN(C)CCC=C1c2ccccc2COc2ccccc21` [DOXEPIN], the “Bacterial Biotransformation” value is reported as “Compound NOT metabolized”.

Regarding `CC(=O)OCC(=O)[C@@]1(OC(C)=O)[C@@H](C)C[C@H]2[C@@H]3C[C@H](F)C4=CC(=O)C=C[C@]4(C)[C@@]3(F)[C@@H](O)C[C@@]21C` [DIFLORASONE DIACETATE], the “Bacterial Biotransformation” value is given as “Compound metabolized”.

The conditions of the next data set: limosilactobacillus reuteri cf48-3a, 12 h, 2 µM.
Description: The drug is tested on Lactobacillus reuteri CF48-3A strain: BEI HM-102 for biotransformation. The drug concentrations were measured before and after a 12-h incubation by liquid-chromatography-coupled mass spectrometry (LC–MS)
For `CC(=O)OCC(=O)[C@@]1(OC(C)=O)[C@@H](C)C[C@H]2[C@@H]3C[C@H](F)C4=CC(=O)C=C[C@]4(C)[C@@]3(F)[C@@H](O)C[C@@]21C` [DIFLORASONE DIACETATE], the “Bacterial Biotransformation” value is on record as “Compound NOT metabolized”.

The conditions of a further data set: roseburia intestinalis, 12 h, 2 µM.
Description: The drug is tested on Roseburia intestinalis strain: L1-82 for biotransformation. The drug concentrations were measured before and after a 12-h incubation by liquid-chromatography-coupled mass spectrometry (LC–MS)
Regarding `CN(C)CCC=C1c2ccccc2COc2ccccc21` [DOXEPIN], the “Bacterial Biotransformation” value is “Compound NOT metabolized”.

In the case of `CC(=O)OCC(=O)[C@@]1(OC(C)=O)[C@@H](C)C[C@H]2[C@@H]3C[C@H](F)C4=CC(=O)C=C[C@]4(C)[C@@]3(F)[C@@H](O)C[C@@]21C` [DIFLORASONE DIACETATE], the “Bacterial Biotransformation” value is “Compound metabolized”.

For a further data set the following is noted: akkermansia muciniphila, 12 h, 2 µM.
Description: The drug is tested on Akkermansia muciniphila strain: ATCC BAA-835 for biotransformation. The drug concentrations were measured before and after a 12-h incubation by liquid-chromatography-coupled mass spectrometry (LC–MS)
As to `CC(=O)OCC(=O)[C@@]1(OC(C)=O)[C@@H](C)C[C@H]2[C@@H]3C[C@H](F)C4=CC(=O)C=C[C@]4(C)[C@@]3(F)[C@@H](O)C[C@@]21C` [DIFLORASONE DIACETATE], the “Bacterial Biotransformation” value is reported as “Compound metabolized”.
